Measurements reported in the supplement of paper PMC10307832.

Experiments:
Experiment in all cases: relative viability (nuclei count vs DMSO), 5 days (fraction); higher = more cells survive
[1] = compound: Cc1ccc2nc(NCCN)c3ncc(C)n3c2c1 + CC(=O)Nc1cccc(-n2c(=O)n(C3CC3)c(=O)c3c(Nc4ccc(I)cc4F)n(C)c(=O)c(C)c32)c1 [Trametinib] (partner 0.02 µM)
Outline: (§1)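 After 5 days of treatment, lung cancer cells in 1536-well plates were fixed and stained in a single step (final 0.05% Triton X-100, 1% formaldehyde, 1 ug/ml Hoechst) and their nuclei counted on 4× images. Treatment had been applied by pin tool the day after seeding as one drug alone or as a fixed anchor-drug dose with five library-drug doses (not always all listed) in √10 steps. Relative viability is the nuclei count of treated wells divided by that of vehicle wells, and values are medians of duplicate plates.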

[2] = compound: Cc1ccc2nc(NCCN)c3ncc(C)n3c2c1 + CCNC(=O)c1noc(-c2cc(C(C)C)c(O)cc2O)c1-c1ccc(CN2CCOCC2)cc1 [Luminespib] (partner 0.01 µM)
Outline: as §1

Salubrinal + Pictilisib = compound: O=C(/C=C/c1ccccc1)NC(NC(=S)Nc1cccc2cccnc12)C(Cl)(Cl)Cl [Salubrinal] + CS(=O)(=O)N1CCN(Cc2cc3nc(-c4cccc5[nH]ncc45)nc(N4CCOCC4)c3s2)CC1 [Pictilisib] (partner 1 µM)
Outline: as §1

Salubrinal + Olaparib = compound: O=C(/C=C/c1ccccc1)NC(NC(=S)Nc1cccc2cccnc12)C(Cl)(Cl)Cl [Salubrinal] + O=C(c1cc(Cc2n[nH]c(=O)c3ccccc23)ccc1F)N1CCN(C(=O)C2CC2)CC1 [Olaparib] (partner 8 µM)
Outline: as §1

Cell Line | relative viability ([1]; first compound 0.04 µM) | relative viability ([1]; first compound 0.1265 µM) | relative viability ([1]; first compound 0.4 µM) | relative viability ([1]; first compound 1.265 µM) | relative viability ([1]; first compound 4 µM) | relative viability ([2]; first compound 0.04 µM) | relative viability ([2]; first compound 0.1265 µM) | relative viability ([2]; first compound 0.4 µM) | relative viability ([2]; first compound 1.265 µM) | relative viability ([2]; first compound 4 µM) | relative viability (Salubrinal + Pictilisib; first compound 0.08 µM) | relative viability (Salubrinal + Pictilisib; first compound 0.253 µM) | relative viability (Salubrinal + Pictilisib; first compound 0.8 µM) | relative viability (Salubrinal + Pictilisib; first compound 2.53 µM) | relative viability (Salubrinal + Pictilisib; first compound 8 µM) | relative viability (Salubrinal + Olaparib; first compound 0.08 µM) | relative viability (Salubrinal + Olaparib; first compound 0.253 µM) | relative viability (Salubrinal + Olaparib; first compound 0.8 µM) | relative viability (Salubrinal + Olaparib; first compound 2.53 µM) | relative viability (Salubrinal + Olaparib; first compound 8 µM)
NCI-H2347 | 0.269 | 0.289 | 0.264 | 0.29 | 0.3 | 1.14 | 1.3 | 0.362 | 0.248 | 0.356 | 0.805 | 0.517 | 0.905 | 0.678 | 0.434 | 0.595 | 0.657 | 0.609 | 0.613 | 0.584
NCI-H2405 | 0.648 | 0.629 | 0.674 | 0.589 | 0.581 | 0.841 | 0.631 | 0.732 | 0.563 | 0.595 | 0.338 | 0.442 | 0.458 | 0.406 | 0.431 | 0.951 | 0.879 | 0.925 | 0.822 | 0.928
NCI-H3122 | 0.21 | 0.26 | 0.248 | 0.259 | 0.238 | 0.101 | 0.11 | 0.0776 | 0.0857 | 0.0976 | 0.565 | 0.633 | 0.657 | 0.694 | 0.663 | 0.762 | 1.23 | 0.566 | 0.664 | 0.683
PC-3 [JPC-3] | 0.656 | 0.738 | 0.62 | 0.601 | 0.529 | 0.733 | 0.71 | 0.672 | 0.671 | 0.628 | 0.796 | 0.666 | 0.714 | 0.727 | 0.702 | 1.16 | 0.567 | 1.23 | 1.1 | 1.09
PC-14 | 0.779 | 0.706 | 0.742 | 0.647 | 0.327 | 0.135 | 0.114 | 0.179 | 0.151 | 0.18 | 0.792 | 0.597 | 0.668 | 0.702 | 0.626 | 0.278 | 0.258 | 0.259 | 0.246 | 0.25
RERF-LC-KJ | 0.857 | 0.805 | 0.888 | 0.86 | 0.828 | 1.13 | 1.14 | 1.26 | 1.17 | 0.715 | 0.664 | 0.622 | 0.549 | 0.608 | 0.52 | 0.901 | 0.838 | 0.996 | 0.753 | 0.951
SK-LU-1 | 0.427 | 0.509 | 0.478 | 0.546 | 0.462 | 0.225 | 0.248 | 0.191 | 0.199 | 0.212 | 0.678 | 0.588 | 0.698 | 0.647 | 0.519 | 0.508 | 0.452 | 0.476 | 0.454 | 0.378
SK-MES-1 | 0.545 | 0.556 | 0.539 | 0.594 | 0.573 | 0.835 | 0.791 | 0.74 | 0.772 | 0.74 | 0.435 | 0.339 | 0.356 | 0.305 | 0.335 | 0.769 | 0.694 | 0.845 | 0.605 | 0.598
SW 1573 | 0.584 | 0.6 | 0.602 | 0.612 | 0.306 | 0.287 | 0.185 | 0.204 | 0.151 | 0.106 | 0.539 | 0.406 | 0.537 | 0.465 | 0.471 | 0.607 | 0.488 | 0.542 | 0.43 | 0.522
